Test results taken from ChEMBL document CHEMBL4699479, “Structure-aided optimization of 3-O-β-chacotriosyl epiursolic acid derivatives as novel H5N1 virus entry inhibitors” (Bioorg Med Chem Lett, 2020).
The source made the active and inactive calls. No cut-off for these calls is given here.

Experiments:
[1] = Cytotoxicity against human A549 cells assessed as reduction in cell viability by MTT assay; assay type: cell-based
in vitro = settings: human, A549 cells
Influenza A virus [2] = assay type: functional, organism-based; settings: A/Duck/Guangdong/212/2004(H5N1), A549
[3] = (§1) Cytotoxicity against dog MDCK cells assessed as reduction in cell viability; assay type: cell-based, Canis lupus familiaris; settings: MDCK cells
MDCK [4] = test: as §1; assay type: cell-based, Canis lupus familiaris; settings: mdck
Influenza A virus [5] = assay type: functional, organism-based; settings: A/Duck/Guangdong/212/2004(H5N1), dose 80.0 mg/kg, time 5.0 day
[6] = system: Vesicular stomatitis virus; test: Antiviral activity against VSV-G enveloped pseudovirus infected in MDCK cells assessed as inhibition of viral entry at 1 to 100 uM; assay type: functional, organism-based; settings: dose microM 1-100
Influenza A virus [7] = assay type: functional, organism-based; settings: A/Duck/Guangdong/212/2004(H5N1), dose mg/kg 40-160, time 5.0 day
Erythrocyte = test: Inhibition of Hemagglutinin in Influenza A virus (H5N1) assessed as reduction in virus-induced agglutination of chicken erythrocytes by hemagglutination assay; assay type: cell-based; settings: dose microM 5-160
Influenza A virus [8] = assay type: functional, organism-based; settings: A/Duck/Guangdong/212/2004(H5N1), A549, dose 25.0 µM
MDCK [9] = test: Cytotoxicity against dog MDCK cells assessed as reduction in cell viability at 0.78125 to 200 uM; assay type: cell-based, Canis lupus familiaris; settings: dose 0.78125-200 µM
[10] = system: Influenza A virus (A/Thailand/Kan353/2004(H5N1)); test: Inhibition of Influenza A virus (A/Thailand/Kan353/2004(H5N1)) neuraminidase N1 at 5 to 20 microM by fluorescence method; settings: dose microM 5-20
H5N1 subtype = test: Antiviral activity against Influenza A virus (A/Thailand/Kan353/2004(H5N1)) infected in MDCK cells assessed as inhibition of viral entry; assay type: functional, organism-based
[11] = system: Influenza A virus (A/Viet Nam/1203/2004(H5N1)); test: (§2) Binding affinity to Influenza A virus (A/Viet Nam/1203/2004(H5N1)) hemagglutin by surface plasmon resonance assay
[12] = as §2

| SMILES | CC50 [1] | selectivity ratio (in vitro) | IC50 (Influenza A virus [2]) | also measured |
| --- | --- | --- | --- | --- |
| CCOC(=O)[C@]12CC[C@@H](C)[C@H](C)[C@H]1C1=CC[C@@H]3[C@@]4(C)CC[C@@H](O[C@@H]5O[C@H](CO)[C@@H](O[C@@H]6O[C@@H](C)[C@H](O)[C@@H](O)[C@H]6O)[C@H](O)[C@H]5O[C@@H]5O[C@@H](C)[C@H](O)[C@@H](O)[C@H]5O)C(C)(C)[C@@H]4CC[C@@]3(C)[C@]1(C)CC2 | 375 µM | 20.7 | 18.1 µM |  |
| CCCCCOC(=O)[C@]12CC[C@@H](C)[C@H](C)[C@H]1C1=CC[C@@H]3[C@@]4(C)CC[C@@H](O[C@@H]5O[C@H](CO)[C@@H](O[C@@H]6O[C@@H](C)[C@H](O)[C@@H](O)[C@H]6O)[C@H](O)[C@H]5O[C@@H]5O[C@@H](C)[C@H](O)[C@@H](O)[C@H]5O)C(C)(C)[C@@H]4CC[C@@]3(C)[C@]1(C)CC2 | 489 µM | 16.7 | 29.3 µM |  |
| C[C@H]1[C@H](C)CC[C@]2(C(=O)N(C)C)CC[C@]3(C)C(=CC[C@@H]4[C@@]5(C)CC[C@H](O[C@@H]6O[C@H](CO)[C@@H](O[C@@H]7O[C@@H](C)[C@H](O)[C@@H](O)[C@H]7O)[C@H](O)[C@H]6O[C@@H]6O[C@@H](C)[C@H](O)[C@@H](O)[C@H]6O)C(C)(C)[C@@H]5CC[C@]43C)[C@H]12 |  |  |  | CC50 [3]: 47 µM |
| C[C@H]1[C@H](C)CC[C@]2(C(=O)Nc3ccccc3)CC[C@]3(C)C(=CC[C@@H]4[C@@]5(C)CC[C@@H](O[C@@H]6O[C@H](CO)[C@@H](O[C@@H]7O[C@@H](C)[C@H](O)[C@@H](O)[C@H]7O)[C@H](O)[C@H]6O[C@@H]6O[C@@H](C)[C@H](O)[C@@H](O)[C@H]6O)C(C)(C)[C@@H]5CC[C@]43C)[C@H]12 | > 1000 µM | > 29.6 | 33.8 µM |  |
| COC(=O)[C@]12CC[C@@H](C)[C@H](C)[C@H]1C1=CC[C@@H]3[C@@]4(C)CC[C@@H](O[C@@H]5O[C@H](CO)[C@@H](O[C@@H]6O[C@@H](C)[C@H](O)[C@@H](O)[C@H]6O)[C@H](O)[C@H]5O[C@@H]5O[C@@H](C)[C@H](O)[C@@H](O)[C@H]5O)C(C)(C)[C@@H]4CC[C@@]3(C)[C@]1(C)CC2 | 363 µM | 22.1 | 16.4 µM | Activity (MDCK [4]): Non-Toxic |
| C[C@H]1[C@H](C)CC[C@]2(C(=O)NCc3ccccc3)CC[C@]3(C)C(=CC[C@@H]4[C@@]5(C)CC[C@@H](O[C@@H]6O[C@H](CO)[C@@H](O[C@@H]7O[C@@H](C)[C@H](O)[C@@H](O)[C@H]7O)[C@H](O)[C@H]6O[C@@H]6O[C@@H](C)[C@H](O)[C@@H](O)[C@H]6O)C(C)(C)[C@@H]5CC[C@]43C)[C@H]12 |  |  | > 50 µM |  |
| NC(=O)c1ncn([C@@H]2O[C@H](CO)[C@@H](O)[C@H]2O)n1 [RIBAVIRIN] | 130 µM | 2.7 | 47.2 µM | Activity (Influenza A virus [5]): Active |
| C[C@H]1[C@H](C)CC[C@]2(C(=O)N(C)C)CC[C@]3(C)C(=CC[C@@H]4[C@@]5(C)CC[C@@H](O[C@@H]6O[C@H](CO)[C@@H](O[C@@H]7O[C@@H](C)[C@H](O)[C@@H](O)[C@H]7O)[C@H](O)[C@H]6O[C@@H]6O[C@@H](C)[C@H](O)[C@@H](O)[C@H]6O)C(C)(C)[C@@H]5CC[C@]43C)[C@H]12 | > 1000 µM | > 119 | 8.42 µM | Activity [6]: inactive; Activity (Influenza A virus [7]): Dose-dependent effect; inhibition (Erythrocyte): Dose-dependent effect; Activity (Influenza A virus [8]): Active; Activity (MDCK [9]): Non-Toxic; inhibition [10]: inactive; IC50 (H5N1 subtype): 6.29 µM; Activity [11]: Dose-dependent effect; Kd [12]: 0.00164 µM |
| C[C@H]1[C@H](C)CC[C@]2(C(=O)O)CC[C@]3(C)C(=CC[C@@H]4[C@@]5(C)CC[C@@H](O[C@@H]6O[C@H](CO)[C@@H](O[C@@H]7O[C@@H](C)[C@H](O)[C@@H](O)[C@H]7O)[C@H](O)[C@H]6O[C@@H]6O[C@@H](C)[C@H](O)[C@@H](O)[C@H]6O)C(C)(C)[C@@H]5CC[C@]43C)[C@H]12 | 283 µM | 5.8 | 48.7 µM |  |
| C[C@H]1[C@H](C)CC[C@]2(C(=O)OC3CCCC3)CC[C@]3(C)C(=CC[C@@H]4[C@@]5(C)CC[C@@H](O[C@@H]6O[C@H](CO)[C@@H](O[C@@H]7O[C@@H](C)[C@H](O)[C@@H](O)[C@H]7O)[C@H](O)[C@H]6O[C@@H]6O[C@@H](C)[C@H](O)[C@@H](O)[C@H]6O)C(C)(C)[C@@H]5CC[C@]43C)[C@H]12 | 524 µM | 12.9 | 40.5 µM |  |
| CNC(=O)[C@]12CC[C@@H](C)[C@H](C)[C@H]1C1=CC[C@@H]3[C@@]4(C)CC[C@@H](O[C@@H]5O[C@H](CO)[C@@H](O[C@@H]6O[C@@H](C)[C@H](O)[C@@H](O)[C@H]6O)[C@H](O)[C@H]5O[C@@H]5O[C@@H](C)[C@H](O)[C@@H](O)[C@H]5O)C(C)(C)[C@@H]4CC[C@@]3(C)[C@]1(C)CC2 | > 1000 µM | > 81.7 | 12.2 µM |  |
| C[C@H]1[C@H](C)CC[C@]2(C(=O)NC3CCCC3)CC[C@]3(C)C(=CC[C@@H]4[C@@]5(C)CC[C@@H](O[C@@H]6O[C@H](CO)[C@@H](O[C@@H]7O[C@@H](C)[C@H](O)[C@@H](O)[C@H]7O)[C@H](O)[C@H]6O[C@@H]6O[C@@H](C)[C@H](O)[C@@H](O)[C@H]6O)C(C)(C)[C@@H]5CC[C@]43C)[C@H]12 | > 1000 µM | > 54.1 | 18.5 µM |  |
| C[C@H]1[C@H](C)CC[C@]2(C(=O)OCc3ccccc3)CC[C@]3(C)C(=CC[C@@H]4[C@@]5(C)CC[C@@H](O[C@@H]6O[C@H](CO)[C@@H](O[C@@H]7O[C@@H](C)[C@H](O)[C@@H](O)[C@H]7O)[C@H](O)[C@H]6O[C@@H]6O[C@@H](C)[C@H](O)[C@@H](O)[C@H]6O)C(C)(C)[C@@H]5CC[C@]43C)[C@H]12 |  |  | > 50 µM |  |
